Reference: patent publication US20250332154A1, “USE OF NAPHTHOQUINE PHOSPHATE IN PREPARATION OF A MEDICAMENT FOR TREATING AUTOIMMUNE DISEASES” (SHANGHAI PHARMACEUTICALS INDUSTRY CO., LTD, priority 2022, published 2025)
Counter-ions that a name gives are not always drawn.

Experiments:
[1] = test system: mouse spleen lymphocytes; test: Non-specific cytotoxicity assay (MTT), mouse spleen lymphocytes; assay type: cell-based; conditions: mouse whole spleen lymphocytes, 48 hours, listed as Hydroxychloroquine Sulfate (Zhongxi Sunve)
Experimental: BALB/c mice were sacrificed by cervical dislocation, and spleens were aseptically excised to prepare whole spleen lymphocytes. The cells were adjusted to the required concentration. The compound concentrations started at 250 μM and was diluted with a 4-fold gradient to obtain 10 concentrations: 250, 62.5, 15.625, 3.906, 0.977, 0.244, 0.061, 0.015, 0.004 and 0.001 μM.
A suspension of mouse spleen lymphocytes was inoculated into a 96-well plate at 8×10^5/well, and the above 10 concentration gradients of the compound were added. A corresponding cell control (i.e. spleen lymphocyte culture system without compound) and a RPMI 1640 culture medium background control (blank culture medium control) were set up. The cells were cultured in a 37° C., 5% CO2 incubator for 48 hours. Four hours before the end of the culture, 20 μl of 5 mg/ml MTT solution was added, and the reaction continued until the end of the culture (i.e. the aforementioned 48 hours). The supernatant was aspirated and discarded, 200 μl DMSO was added to each well to dissolve the crystals. […]. The absorbance value was measured at […] with a microplate reader (Spectra Max 190, Molecular Devices).

[2] = test system: bovine type II collagen-induced arthritis in mice; test: Bone morphological analysis by Micro-CT in arthritic mice; assay type: in vivo, mouse; conditions: intragastric, FIG. 5
Experimental: (§1) Normal group, model group, positive medicament (1 mg/kg dexamethasone) group, naphthoquine phosphate (25, 50, 100 mg/kg) groups, hydroxychloroquine sulfate (100 mg/kg) group.
(§2) 10 mg of Type II Collagen (CII) was swollen in 2.5 ml of 0.1 mol/L glacial acetic acid to prepare a 4 mg/ml CII solution. This solution was fully emulsified with an equal volume of CFA, and injected subcutaneously (50 μl) at the base of the tail of mice. After 21 days, 4 mg/ml CII solution was fully emulsified with an equal volume of IFA. This mixture was injected subcutaneously (50 μL) at the base of the tail of mice to boost the immune response.
Three-dimensional reconstruction was performed by the micro-CT technology, and bone morphology analysis was performed by professional analysis software.

[3] = test system: spleen and lymph node lymphocytes in arthritic mice; test: Lymphocyte proliferation of spleen and lymph nodes of arthritic mice (3H-TdR incorporation); assay type: in vivo, mouse; conditions: intragastric, cells stimulated ex vivo, FIG. 3
Experimental: as §1, §2
Lymphocyte proliferation in each group was assessed using the ^3H-TdR incorporation method. Lymph nodes […] of mice in each group were isolated to prepare lymphocyte suspensions. The cells were inoculated into each well of a 96-well plate. ConA (final concentration: 5 μg/ml) and LPS (final concentration: 10 μg/ml) were added respectively, and cultured in a 37° C., 5% CO2 incubator for 48 hours. Eight hours before the end of the culture, 25 μl ^3H-TdR and anti-CD3 (final concentration: 5 μg/ml, pre-incubated overnight) were added to each well. The cells were cultured in a 37° C., 5% CO2 incubator for […]. […] 5 ml scintillation fluid was added, and the values of radioactive counts per minute were read on a Beta counter (2450 Microplate Counter, PerkinElmer).

[4] = test system: collagen-specific antibodies; test: Anti-CII antibody levels in serum of arthritic mice (ELISA); assay type: in vivo, mouse; conditions: intragastric, FIG. 4
Experimental: as §1, §2
50 μl CII solution (final concentration: 50 μg/ml) was added to each well of a 96-well ELISA plate for coating overnight. The plate was washed 4 times with 200 μl washing solution (1L PBS+500 μl Tween 20) per well. 100 μl 1% BSA was added to each well to block for 1 hour. The plate was then washed 4 times with 200 μl washing solution per well. 50 μl diluted serum samples from each group of mice were added to each well and incubated for 2 hours. The plate was washed 4 times with 200 μl washing solution per well. Horseradish Peroxidase (HRP)-conjugated IgG secondary antibody was added and incubated for 1 hour. […] Absorbance values at 450 nm/570 nm were read by a microplate reader (Spectra Max 190, Molecular Devices).

[5] = test system: bovine type II collagen-induced arthritis in mice; test: Bovine type II collagen-induced arthritis in mice: arthritis scoring and hindfoot thickness; assay type: in vivo, mouse
Experimental: as §1, §2
The severity of arthritis was scored by observing joint lesions of limbs of mice. Detectable arthritis accompanied by erythema in one or more fingers was scored as 1 point, moderate redness and swelling from the ankle joint to the middle of the foot was scored as 2 points, severe redness and swelling from the ankle joint to the fingers was scored as 3 points, and severe swelling with ankylosis was scored as 4 points. During scoring, bilateral hindfoot thickness was measured.

[6] = test system: anti-dsDNA antibodies; test: Anti-double-stranded DNA antibodies in serum of MRL/lpr mice (ELISA); assay type: in vivo, mouse; conditions: intragastric 25, 50 mg/kg, FIG. 8
Experimental: Normal group, model group, positive medicament (1 mg/kg prednisone) group, naphthoquine phosphate (25, 50 mg/kg) group, hydroxychloroquine sulfate (100 mg/kg) group.
50 μl double-stranded DNA solution (final concentration: 50 μg/ml) was added to each well of a 96-well ELISA plate for coating overnight. The plate was washed 4 times with 200 μl washing solution (1L PBS+500 μl Tween 20) per well. 100 μl 1% BSA was added to each well and blocked for 1 hour. The plate was washed 4 times with 200 μl washing solution per well. 50 μl diluted mouse serum samples of each group were added to each well and incubated for 2 hours. The plate was washed 4 times with 200 μl washing solution per well. Horseradish peroxidase (HRP)-conjugated IgG (H+L) secondary antibodies were added and incubated for 1 hour. The plate was washed 5 times with 200 μl washing solution per well. 50 μl tetramethylbenzidine (TMB) substrate was added, and 30 μl 1M sulfuric acid solution was added to terminate color development based on the condition of color development. Absorbance values at 450 nm/570 nm were read by a microplate reader (Spectra Max 190, Molecular Devices).
At the end of the experiment, eyeballs were removed to collect blood. ELISA method was used to detect the levels of anti-dsDNA antibodies in serum of experimental mice, and the anti-nuclear antibody kit was used to detect the levels of anti-nuclear antibodies. […]

| Compound | CC50 [1] [µM] | bone damage in model mice (Micro-CT) [2] | proliferation of spleen and lymph node lymphocytes in arthritic mice [3] | levels of collagen-specific antibodies in serum of arthritic mice [4] | arthritis scores of model mice ([5]; intragastric, 25, 50, 100 mg/kg, FIG. 1, vs model group) | foot swelling in arthritic mice ([5]; intragastric, FIG. 2) | therapeutic effect on arthritis scores compared with hydroxychloroquine sulfate ([5]; same dose (100 mg/kg), FIG. 1) | levels of anti-dsDNA antibodies in serum [6] |
| --- | --- | --- | --- | --- | --- | --- | --- | --- |
| CCN(CCO)CCCC(C)Nc1ccnc2cc(Cl)ccc12 (centres unmarked) [Hydroxychloroquine Sulfate, hydroxychloroquine sulfate] | 25.2 |  |  |  |  |  |  |  |
| CC(C)(C)NCc1cc(Nc2ccnc3cc(Cl)ccc23)c2c(c1O)CCCC2.O=P(O)(O)O.O=P(O)(O)O [Naphthoquine Phosphate, Naphthoquine phosphate] |  | inhibited | significantly inhibit | reduce | significantly reduced | improved | superior to that of hydroxychloroquine sulfate at the same dose | significantly reduced |
